≈ marks a conversion by molar mass, not a printed value.

For the data set the following is noted: buffer; pH 7.4; 200.0 µM.
`Cc1nc(NC(=O)c2ccc(Br)o2)ccc1Br`: the kinetic solubility (in general, solubility judged after dilution from a stock solution rather than from solid) is under 0.0004 mg/mL.

Compound `COC(=O)c1cc(-c2cccc([N+](=O)[O-])c2)c2c(=O)[nH]c(=O)n(C)c2n1` returned a kinetic solubility of 0.0011 mg/mL (≈ 3.09 µM).

For `CCOC(=O)CSc1nc2ccccc2c(=O)n1CC(C)C`, the kinetic solubility came to 0.0042 mg/mL (≈ 13.1 µM).

With `NC(N)=NCCCC(NC(=O)c1ccccc1)C(=O)Nc1ccc2ccccc2c1` (stereo unspecified), the solubility (kinetic) turned out to be 0.0522 mg/mL (≈ 129 µM).

`CCCCC(=O)N=c1sc2cc([N+](=O)[O-])ccc2n1C` came in with a solubility (kinetic) of under 0.0002 mg/mL.

`COCCNC(=O)/C(C#N)=C/c1ccc(O)cc1` came in with a kinetic solubility of over 0.0369 mg/mL.

The compound `COC(=O)C(Cc1cccc(C)n1)(c1ccccc1)c1ccccc1` yielded a kinetic solubility of 0.0142 mg/mL (≈ 42.8 µM).

Regarding `CCOC(=O)c1cnc(/N=C/N(C)C)s1`, the kinetic solubility was 0.0296 mg/mL (≈ 130 µM).

`O=C(NCc1ccccc1Cl)NCc1ccccc1Cl` registered a kinetic solubility of 0.0011 mg/mL (≈ 3.56 µM).

Regarding `Nc1ccc(-c2cnc3ccccc3n2)cc1`, the solubility (kinetic) is 0.0274 mg/mL (≈ 124 µM). Against the preceding compound, the solubility kinetic is about 25-fold higher.

`CN(C)CC(C)(C)CNCc1cc(=O)oc2ccc3ccccc3c12` gave a kinetic solubility of over 0.0508 mg/mL.

Take `Cn1cccc1C(=O)OCC(=O)Nc1sccc1C#N`: the solubility (kinetic) was found to be 0.0042 mg/mL (≈ 14.5 µM).

Compound `COc1ccc(C(O)C(C)NC(C)C(O)c2ccc(OC)cc2)cc1` (stereo unspecified) yielded a kinetic solubility of 0.0433 mg/mL (≈ 125 µM).

`COc1nc2ccccc2nc1N1CCN(c2ccc(F)cc2)CC1` registered a solubility (kinetic) of under 0.0002 mg/mL.

For `CC(C)Oc1ccccc1NC(=O)CSc1nccn1C`, the kinetic solubility is over 0.0458 mg/mL.

For the compound `Cc1ccc(S(=O)(=O)N2CCOCC2)cc1C(=O)Nc1nc(-c2ccccn2)cs1`, the solubility (kinetic) stood at 0.0239 mg/mL (≈ 53.8 µM).

As for `Cc1nc(C(=O)N2CCCC(C(=O)c3ccc(Cl)cc3)C2)cs1` (stereo unspecified), the kinetic solubility is over 0.0523 mg/mL.

Compound `COc1ccc(CC(=O)NCCCSc2ccccc2)cc1OC` displayed a solubility (kinetic) of 0.0459 mg/mL (≈ 133 µM).

Turning to `Cl.Clc1ccc(CN2CCNCC2)cc1`, the solubility (kinetic) came out at 0.0226 mg/mL. This solubility kinetic lies about 2-fold lower than the previous one.

`Cc1ccc2c(c1)C(c1ccccc1)N(C(=O)CC(C)C)CC(=O)N2` (stereo unspecified): the kinetic solubility is over 0.0505 mg/mL.

For the compound `CC(=O)c1c(C)n(CCc2ccc(Cl)cc2)c2ccc(O)cc12`, the kinetic solubility is under 0.0007 mg/mL.

For `Cn1ncc(Cl)c1C(=O)N1CCC2(CC1)OCCO2`, the kinetic solubility was over 0.0429 mg/mL.

`O=C1CN(C(=O)CSc2ccccn2)c2ccccc2N1` had a solubility (kinetic) of over 0.0449 mg/mL.

Turning to `CCN1C(=O)C(=Cc2ccc(N3CCOCC3)o2)C(=O)N(CC)C1=S`, the kinetic solubility was determined as 0.0011 mg/mL (≈ 3.03 µM).

`CCOc1ccccc1-n1c(C)cc(C=O)c1C` returned a kinetic solubility of over 0.0365 mg/mL.

The compound `Cc1ccc(C)c(S(=O)(=O)NCc2ccc(C(=O)N3CCOCC3)cc2)c1` registered a solubility (kinetic) of over 0.0583 mg/mL.

`Cc1cc(C)cc(NS(=O)(=O)Cc2ccccc2)c1`: the solubility (kinetic) was found to be 0.0395 mg/mL (≈ 143 µM).

Turning to `O=C(C1CC1)N1CCN(Cc2ccccc2)CC1`, the solubility (kinetic) turned out to be 0.0335 mg/mL (≈ 137 µM).

`Cc1ccc(N=C2NC(=O)C(CO)(CO)S2)cc1`: the kinetic solubility stood at 0.0271 mg/mL (≈ 102 µM). This solubility kinetic and that of the compound before are within 1.5-fold of each other.

With `COc1ccc(OCC(O)CNC(=O)c2ccccc2)cc1` (stereo unspecified), the kinetic solubility came to 0.0401 mg/mL (≈ 133 µM). The solubility kinetic values of the last two compounds are within 1.5-fold of each other.

In turn, `Cc1ccccc1NC(=O)c1cccc(C(=O)Nc2ccccc2C)n1` came in with a kinetic solubility of 0.0003 mg/mL (≈ 0.869 µM).

The compound `CCCC(=O)Nc1cccc(Oc2ccc3c(c2)C(=O)NC3=O)c1` gave a kinetic solubility of 0.0116 mg/mL (≈ 35.8 µM).

In turn, `CCN(CC(=O)NCc1cccs1)C(=O)CCOc1ccccc1` displayed a solubility (kinetic) of over 0.052 mg/mL.

Regarding `Cc1nn(C)cc1CN(C)S(=O)(=O)c1cccc([N+](=O)[O-])c1`, the solubility (kinetic) was over 0.0487 mg/mL.

Turning to `Cc1ccc(NC(=O)C(Cc2ccccc2)n2cccc2)cc1` (stereo unspecified), the kinetic solubility was found to be 0.0019 mg/mL (≈ 6.24 µM).

In turn, `O=c1c(C/C=C/c2ccccc2)c(O)ccn1Cc1cccc(Cl)c1` registered a solubility (kinetic) of under 0.0008 mg/mL.

`Cc1ccc(NC(=O)NCC(c2ccccc2)N(C)C)cc1` (stereo unspecified) yielded a kinetic solubility of over 0.0446 mg/mL.

As for `Cc1c(C)n(CCC(=O)O)c2ccccc12`, the kinetic solubility is over 0.0326 mg/mL.

Take `Cc1cc(Cl)ccc1-n1c(-c2cccnc2)n[nH]c1=S`: the kinetic solubility is over 0.0454 mg/mL.

On to `CCOn1c(=O)c(-c2ccc(Br)cc2)[n+]([O-])c2ccccc21`, for which the solubility (kinetic) is 0.0013 mg/mL (≈ 3.6 µM).

The compound `O=C(CSCc1ccc(Cl)cc1)Nc1cccc(C(=O)O)c1` returned a kinetic solubility of over 0.0504 mg/mL.

Source of the values: PubChem BioAssay AID1996.
